Assay results: patent publication US20090030086A1, “ANTIMICROBIAL AGENTS” (priority 2005, published 2009)
≈ marks a conversion by molar mass, not a printed value.

Assays:
H. influenzae ATCC 49247 = assay: Disc diffusion assay (DDA); format: cell-based, Haemophilus influenzae; conditions: 200 μg per disc
Experimental: The H. influenzae strain was cultured and maintained on Haemophilus Test Medium (HTM) agar/broth (the composition of which is as described in NCCLS M7-A6 Vol. 23 No. 2); cultures were incubated in a CO2 atmosphere at 37° C. for 24 hours.
(§1) A sterile paper disc was impregnated with a sample of the test compound and a minimum of 30 minutes allowed for the solvents to evaporate as far as possible. The disc was then placed on an agar plate onto which the test micro-organism had been inoculated. The plate was then incubated under the conditions described above, following which it was examined visually for signs of bacterial growth. If the test compound had antimicrobial activity, a circular zone of no growth would be obtained around the disc. The diameter of this zone of “inhibition” was measured using a ProtoCOL™ automated zone sizer (Synbiosis, Cambridge, UK). In general, a greater diameter and/or area of the zone of inhibition indicates a greater antimicrobial activity in the relevant test compound, although other factors such as test compound mobility through the agar gel may also influence the result.
(§2) The area of the zone of inhibition was calculated from the measured zone diameter (D) using the formula π(D/2)^2.
The activity of TBHQ against three other bacterial strains was investigated using MIC, MBC and DDA assays as described above. […]

P. granulosum PPR-006 = assay: Disc diffusion assay (DDA); format: cell-based; conditions: resistance MLS, 200 μg per disc
Experimental: (§3) The Propionibacterium spp organisms were cultured and maintained on Wilkins-Chalgren Anaerobe Medium (agar and broth) at pH 6.0; cultures were incubated anaerobically at 37° C. for 72 hours.
as §1, §2
(§4) For the DDA assays, 200 μg of TBHQ was loaded onto each disc. The solvent used for the TBHQ was ethanol.

P. granulosum PRP-044 = assay: Disc diffusion assay (DDA); format: cell-based; conditions: resistance MLS, 200 μg per disc
Experimental: as §3, §1, §2, §4

S. pyogenes ATCC 12344 [1] = assay: MIC assay; format: cell-based; conditions: Streptococcus pyogenes, ATCC12344
Excerpt: 3. Streptococcus pyogenes ATCC 12344—this is a Gram-positive […] bacterium; it is a member of the group A β-haemolytic streptococci which are occasional upper respiratory tract commensals in humans (10% of children, commensal carriage uncommon in adults, its main occurrence is as the agent of tonsillitis). It is clinically significant in the context of skin infections, being a causative agent of cellulitis, necrotising fasciitis, impetigo, erysipelas, wound infections and scarlet fever. Penicillin and erythromycin are the standard treatments for infections involving S. pyogenes. […] S. pyogenes is also a major cause of upper respiratory tract infections. […]
This is a standard international method for quantitatively assessing the antimicrobial activity of a compound in a liquid medium. […]
The wells were inoculated with a liquid suspension of freshly grown micro-organism and incubated under the conditions described above. […] The MIC value was recorded as the lowest concentration of test compound required to inhibit microbial growth, i.e., the lowest concentration for which the liquid in the well remained clear. […]

P. acnes NCTC 737 = assay: MBC assay; format: cell-based, Propionibacterium acnes
How it was run: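 Plates were then checked visually for growth. The MBC is the lowest lethal concentration; cultures were grown on Wilkins-Chalgren Anaerobe Medium at pH 6.0.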

S. pyogenes ATCC 12344 [2] = assay: MBC assay; format: cell-based, Streptococcus pyogenes
Experimental: The S. pyogenes strain was cultured and maintained on Mueller-Hinton agar with 5% v/v defibrinated horse blood, and grown in Mueller-Hinton broth supplemented with 5% lysed horse blood (lysed horse blood was prepared as described in the NCCLS M7-A6 Vol. 23 No. 2); cultures were incubated aerobically at 37° C. for 24 hours.
This assay, normally carried out after an MIC assay, determines the minimum concentration of a compound that is lethal to the micro-organism being tested.
These samples were then individually sub-cultured on non-selective agar medium, under the incubation conditions described above. Following incubation they were examined visually for bacterial growth.
The activity of TBHQ against three other bacterial strains was investigated using MIC, MBC and DDA assays as described above. For the DDA assays, 200 μg of TBHQ was loaded onto each disc, using ethanol as the solvent.

P. acnes PRP-046 = assay: Disc diffusion assay (DDA); format: cell-based, Propionibacterium acnes; conditions: resistance None, 200 μg per disc
Experimental: as §3, §1, §2, §4

P. acnes PRP-008 = assay: Disc diffusion assay (DDA); format: cell-based, Propionibacterium acnes; conditions: resistance Clin, 200 μg per disc
Experimental: as §3, §1, §2, §4

P. acnes PRP-101 = assay: Disc diffusion assay (DDA); format: cell-based, Propionibacterium acnes; conditions: resistance Tet/MLS, 200 μg per disc
Experimental: as §3, §1, §2, §4

P. acnes PRP-023 = assay: Disc diffusion assay (DDA); format: cell-based, Propionibacterium acnes; conditions: resistance MLSK, 200 μg per disc
Experimental: as §3, §1, §2, §4

P. acnes PRP-003 = assay: Disc diffusion assay (DDA); format: cell-based, Propionibacterium acnes; conditions: resistance Tet, 200 μg per disc
Experimental: as §3, §1, §2, §4

P. acnes PRP-017 = assay: Disc diffusion assay (DDA); format: cell-based, Propionibacterium acnes; conditions: resistance MLS, 200 μg per disc
Experimental: as §3, §1, §2, §4

P. acnes PPR-007 = assay: Disc diffusion assay (DDA); format: cell-based, Propionibacterium acnes; conditions: resistance Clin, 200 μg per disc
Experimental: as §3, §1, §2, §4

P. acnes PRP-026 = assay: Disc diffusion assay (DDA); format: cell-based, Propionibacterium acnes; conditions: resistance MLS, 200 μg per disc
Experimental: as §3, §1, §2, §4

P. acnes PRP-059 = assay: Disc diffusion assay (DDA); format: cell-based, Propionibacterium acnes; conditions: resistance MLS, 200 μg per disc
Experimental: as §3, §1, §2, §4

P. acnes PRP-068 = assay: Disc diffusion assay (DDA); format: cell-based, Propionibacterium acnes; conditions: resistance Ery, 200 μg per disc
Experimental: as §3, §1, §2, §4

P. acnes PRP-002 = assay: Disc diffusion assay (DDA); format: cell-based, Propionibacterium acnes; conditions: resistance Tet/MLS, 200 μg per disc
Experimental: as §3, §1, §2, §4

P. acnes PRP-102 = assay: Disc diffusion assay (DDA); format: cell-based, Propionibacterium acnes; conditions: resistance Tet/MLS, 200 μg per disc
Experimental: as §3, §1, §2, §4

P. acnes PRP-053 = assay: Disc diffusion assay (DDA); format: cell-based, Propionibacterium acnes; conditions: resistance Tet/MLS, 200 μg per disc
Experimental: as §3, §1, §2, §4

P. acnes PRP-004 = assay: Disc diffusion assay (DDA); format: cell-based, Propionibacterium acnes; conditions: resistance Tet, 200 μg per disc
Experimental: as §3, §1, §2, §4

In the case of CC(C)(C)c1cc(O)ccc1O [TBHQ, 2-t-butyl hydroquinone], the DDA (H. influenzae ATCC 49247) is reported as 36.33 mm, the DDA (P. granulosum PPR-006) is reported as 20.00 mm and the DDA (P. granulosum PRP-044) is reported as 10.70 mm. The MIC (S. pyogenes ATCC 12344 [1]) was 62.5 to 125 µg/mL (≈ 376 to 752 µM), the MIC/MBC ratio (P. acnes NCTC 737; P. acnes NCTC 737) was 0.5 and the MBC (P. acnes NCTC 737; P. acnes NCTC 737 (Table 6), resistance None) was 15.6 µg/mL (≈ 93.9 µM). It also gave an MIC/MBC ratio (S. pyogenes ATCC 12344 [2]) of 1, an MBC (S. pyogenes ATCC 12344 [2]; Streptococcus pyogenes, ATCC12344) of 62.5 to 125 µg/mL (≈ 376 to 752 µM) and a DDA (P. acnes PRP-046) of 17.46 mm. It also gave a DDA (P. acnes PRP-008) of 14.47 mm, a DDA (P. acnes PRP-101) of 0.0 mm and a DDA (P. acnes PRP-023) of 23.90 mm. It also gave a DDA (P. acnes PRP-003) of 38.01 mm, a DDA (P. acnes PRP-017) of 18.40 mm and a DDA (P. acnes PPR-007) of 13.43 mm. For the same compound, the DDA (P. acnes PRP-026) was 8.18 mm, the DDA (P. acnes PRP-059) was 17.56 mm and the DDA (P. acnes PRP-068) was 20.89 mm. It also gave a DDA (P. acnes PRP-002) of 28.42 mm, a DDA (P. acnes PRP-102) of 23.80 mm and a DDA (P. acnes PRP-053) of 23.49 mm. It also gave a DDA (P. acnes PRP-004) of 30.32 mm.
